Experimental data published in article PMC10218498, “Exploring BenzylethoxyAryl Urea Scaffolds for Multitarget Immunomodulation Therapies” (International Journal of Molecular Sciences, 2023).
Like-named read-outs stand apart in the source and are kept apart here.

Key:
[1] = tested on: HT-29 (colon adenocarcinoma); assay: MTT cell proliferation assay, HT-29; format: cell-based, human; settings: for IC50: Homo sapiens, read-out: IC50 HT-29; for SI (HT-29) (IC50HEK293/IC50HT-29): selectivity index
Protocol: (§1) The 3-(4,5-dimethylthiazol-2-yl)-2,5-diphenyltetrazolium bromide (MTT; Sigma Chemical Co.) dye reduction assay in 96-well microplates was used. […] After that, the supernatant was discarded and replaced by 100 µL of DMSO to dissolve formazan crystals. The absorbance was then read at 550 nm by spectrophotometry. For all concentrations of compound, cell viability was expressed as the percentage of the ratio between the mean absorbance of treated cells and the mean absorbance of untreated cells. Three independent experiments were performed, and the IC50 values (i.e., concentration half inhibiting cell proliferation) were graphically determined using GraphPad Prism 4 software.

[2] = tested on: A-549 (pulmonary adenocarcinoma); assay: MTT cell proliferation assay, A-549; format: cell-based, human; settings: for IC50: Homo sapiens, read-out: IC50 A-549; for SI (A-549) (IC50HEK293/A-549): selectivity index
Protocol: as §1

[3] = tested on: HEK-293 (human embryonic kidney cells); assay: MTT cell proliferation assay, HEK-293; format: cell-based; settings: HEK293, 48 h of treatment
Protocol: (§2) This assay allowed us to establish the corresponding IC50 values (expressed as the concentration, in μM, at which 50% of cell viability is achieved), shown in Table 1.
(§3) In 96-well plates, 5 × 10^3 (HT-29, MCF-7, A549, HMEC-1, Jurkat, and HEK-293) cells per well were incubated with serial dilutions of the tested compounds in a total volume of 100 μL of their respective growth media. The 3-(4,5-dimethylthiazol-2-yl)-2,5-diphenyltetrazolium bromide (MTT; Sigma Chemical Co.) dye reduction assay in 96-well microplates was used. After 2 days of incubation (37 °C, 5% CO2 in a humid atmosphere), 10 μL of MTT (5 mg/mL in phosphate-buffered saline, PBS) was added to each well, and the plate was incubated for a further 3 h (37 °C). After that, the supernatant was discarded and replaced by 100 µL of DMSO to dissolve formazan crystals. The absorbance was then read at 550 nm by spectrophotometry. For all concentrations of compound, cell viability was expressed as the percentage of the ratio between the mean absorbance of treated cells and the mean absorbance of untreated cells. Three independent experiments were performed, and the IC50 values (i.e., concentration half inhibiting cell proliferation) were graphically determined using GraphPad Prism 4 software.

[4] = tested on: MCF-7 (Human breast cancer adenocarcinoma); assay: MTT cell proliferation assay, MCF-7; format: cell-based; settings: for IC50: Homo sapiens; for SI (MCF-7): selectivity index vs HEK-293
Protocol: as §1

CD80 = CD80 relative quantification by flow cytometry in co-cultured THP-1; format: cell-based, human; settings: 20 μM, related to non-treated cells
Protocol: Reducing the expression of CD11b has become a promising target for immune modulation in anti-cancer therapies. For that reason, we decided to study the effect of our compounds on CD11b in THP-1 cells co-cultured with HT-29. We also determine the relative amount of CD80, a common surface marker for monocytes. This study was performed on the collected cell culture from each well and gating living THP-1 cell population.
To study the effect of the compounds on every biological target in co-cultured THP-1 immune cells with cancer cell line HT-29, the compounds were incubated for 24 h/48 h as described before.
To detect membrane CD11b and CD80, after the cell incubation, suspended THP-1 was collected from the cell culture of each sample well, fixed with 4% in PBS paraformaldehyde, and stained with FITC Mouse monoclonal Anti-Human CD80 (Sigma-Aldrich, S. Louis, MO, USA, SAB4700142) and Alexa Fluor® 647 Rabbit monoclonal Anti-CD11b (Merck, S. Louis, MO, USA, #MABF366).

PD-L1 = PD-L1 (Homo sapiens, UniProt Q9NZQ7); assay: PD-L1 relative quantification by flow cytometry in MCF-7; format: cell-based; set-up: endogenous in cells; host or cells: MCF-7; settings: MCF-7, 20 µM, 24 h; for % PD-L1 Memb. / % PD-L1 Total: control = 100
Chain of PD-L1 (Q9NZQ7 19-290): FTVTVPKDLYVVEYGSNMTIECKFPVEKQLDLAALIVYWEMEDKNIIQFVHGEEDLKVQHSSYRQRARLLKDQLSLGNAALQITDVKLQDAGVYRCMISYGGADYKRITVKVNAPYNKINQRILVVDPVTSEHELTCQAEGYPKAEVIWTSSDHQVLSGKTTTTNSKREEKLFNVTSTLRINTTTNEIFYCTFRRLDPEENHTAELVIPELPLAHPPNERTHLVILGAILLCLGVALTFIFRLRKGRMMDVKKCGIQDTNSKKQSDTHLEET
Protocol: In view of the good results obtained for these selected compounds, we decided to extend the study to a third cancer cell line, MCF-7 (Human breast cancer adenocarcinoma). First, we determined the IC50 values of the derivatives and their SI indexes (see Table 4). Then, we determined the effect of the selected compounds on the biological targets, PD-L1 and VEGFR-2, by flow cytometry. […] As usually, the assay was performed at a concentration of 20 µM for 24 h.
(§4) To study the effect of the compounds on every biological target in cancer cell lines, the compounds were used at 20 µM dose.
(§5) For the assay, 10^5 cells per well were incubated for 24 h with the corresponding dose of the tested compound in a total volume of 500 μL of their growth media.
On the one hand, to detect total PD-L1 and VEGFR-2, after the cell treatments, they were collected and fixed with 4% in PBS paraformaldehyde. After fixation, a treatment with 0.5% in PBS TritonTM X-100 was performed, and finally, cells were stained with FITC Mouse monoclonal Anti-Human VEGFR-2 (ab184903) and Alexa Fluor® 647 Rabbit monoclonal Anti-PD-L1 (ab215251).
(§6) On the other hand, to detect membrane PD-L1 and VEGFR-2, the process was the same, avoiding the treatment with 0.5% in PBS TritonTM X-100 step.

VEGFR-2 = VEGFR-2 (Homo sapiens, UniProt P35968); assay: VEGFR-2 relative quantification by flow cytometry in HT-29; format: cell-based; set-up: Both membrane and total PD-L1 and VEGFR-2 were relatively determined using DMSO-treated cells as a negative control; endogenous in cells; host or cells: HT-29; settings: 24 h; for Total VEGFR-2 (%): relative to DMSO control = 100; for inhibition at 20 µM: HT-29, HT-29, 20 µM, read-out: inhibition rate of VEGFR-2
Chain of VEGFR-2 (P35968 20-1356): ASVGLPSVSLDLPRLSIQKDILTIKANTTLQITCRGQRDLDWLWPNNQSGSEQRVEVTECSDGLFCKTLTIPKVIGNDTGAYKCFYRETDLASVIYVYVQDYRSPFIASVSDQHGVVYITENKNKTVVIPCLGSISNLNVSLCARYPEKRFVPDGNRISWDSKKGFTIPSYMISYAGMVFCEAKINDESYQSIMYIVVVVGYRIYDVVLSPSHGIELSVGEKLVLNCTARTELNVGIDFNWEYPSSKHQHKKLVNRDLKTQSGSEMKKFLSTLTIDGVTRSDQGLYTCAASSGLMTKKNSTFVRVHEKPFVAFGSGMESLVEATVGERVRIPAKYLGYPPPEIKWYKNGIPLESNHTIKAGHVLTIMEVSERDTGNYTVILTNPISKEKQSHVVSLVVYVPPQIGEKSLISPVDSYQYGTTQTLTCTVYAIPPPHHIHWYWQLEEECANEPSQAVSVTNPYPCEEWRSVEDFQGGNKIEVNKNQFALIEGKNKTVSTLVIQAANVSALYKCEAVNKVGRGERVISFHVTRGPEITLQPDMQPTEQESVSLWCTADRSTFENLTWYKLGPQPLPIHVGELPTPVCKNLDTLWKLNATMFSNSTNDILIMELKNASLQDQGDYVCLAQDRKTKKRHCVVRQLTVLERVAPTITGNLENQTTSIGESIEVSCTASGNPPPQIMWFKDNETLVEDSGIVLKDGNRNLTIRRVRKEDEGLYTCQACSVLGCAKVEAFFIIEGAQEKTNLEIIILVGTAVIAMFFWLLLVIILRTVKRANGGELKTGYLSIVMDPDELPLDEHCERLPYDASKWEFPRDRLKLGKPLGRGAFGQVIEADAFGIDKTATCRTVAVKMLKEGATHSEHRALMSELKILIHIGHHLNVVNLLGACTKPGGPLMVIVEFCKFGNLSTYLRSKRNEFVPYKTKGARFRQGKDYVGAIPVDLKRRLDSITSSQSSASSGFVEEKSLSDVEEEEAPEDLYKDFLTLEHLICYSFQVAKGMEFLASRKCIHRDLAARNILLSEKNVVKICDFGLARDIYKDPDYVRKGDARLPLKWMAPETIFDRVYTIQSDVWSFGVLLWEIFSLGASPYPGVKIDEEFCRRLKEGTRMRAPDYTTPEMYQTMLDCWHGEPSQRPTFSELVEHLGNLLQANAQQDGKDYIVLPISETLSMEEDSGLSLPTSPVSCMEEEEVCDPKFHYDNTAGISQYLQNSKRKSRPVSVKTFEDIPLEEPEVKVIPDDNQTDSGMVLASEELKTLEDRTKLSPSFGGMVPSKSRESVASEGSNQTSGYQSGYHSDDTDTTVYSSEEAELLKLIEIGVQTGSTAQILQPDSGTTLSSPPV
Protocol: For these assays, cells were incubated for 24 h in the presence of the corresponding compounds at 20 µM concentration.
as §4, §5
On the one hand, to detect total PD-L1 and VEGFR-2, after the cell treatments, they were collected and fixed with 4% in PBS paraformaldehyde.
as §6

[5] = tested on: human microvessel endothelial cells (HMEC-1); assay: MTT cell proliferation assay, HMEC-1; format: cell-based; settings: 48 h of treatment
Protocol: as §2, §3

[6] = MCF7, MTT, read-out: IC50 (μM) MCF-7
[7] = membrane THP-1, 1:5 HT-29/THP-1, 24 h
[8] = membrane THP-1, 2:1 HT-29/THP-1, 48 h

Row | SMILES | IC50 ([1]; HT-29, MTT, 48 h of treatment) | SI (HT-29) (IC50HEK293/IC50HT-29) [1] | IC50 ([2]; A549, MTT, 48 h of treatment) | SI (A-549) (IC50HEK293/A-549) [2] | IC50 [3] | IC50 [4, 6] | SI (MCF-7) [4] | % CD80 (CD80; [7]) | % CD80 (CD80; [8]) | % PD-L1 Memb. (PD-L1) | % PD-L1 Total (PD-L1) | Total VEGFR-2 (%) (VEGFR-2; HT-29, 20 µM) | IC50 [5] | inhibition at 20 µM (VEGFR-2) | inhibition at 20 µM (PD-L1; MCF7, read-out: inhibition rate for total PD-L1) | inhibition rate of VEGFR-2 (VEGFR-2; HT-29, 20 µM) | IC50 ([1]; HT-29, 48 h) | IC50 ([2]; A549, 48 h) | IC50 ([4]; MCF7, read-out: IC50 (μM) MCF-7)
1 | Cc1c(COc2ccc(CN3CCCCC3C(=O)O)cc2Br)cccc1-c1ccccc1 (centres unmarked) [BMS-8, reference compound] | 19 ± 2 µM | 3 | 6 ± 1 µM | 10 | 60 ± 10 µM | 20 ± 3 µM | 3 | 101 ± 6% | 101 ± 6% | 88 ± 11% | 197% | 86 ± 21% |  |  |  |  |  |  | 
2 | COc1ccc(COc2cccc(NC(=O)Nc3ccc(F)cc3)c2)cc1 [Compound 2] | 5.5 ± 1.2 µM | >18 | 3.4 ± 0.8 µM | >29 | > 100 µM | 0.17 ± 0.03 µM | >580 | 99 ± 5% | 105 ± 1% | 81 ± 10% | 62 ± 15% | 62 ± 15% | > 100 µM | ~50% |  |  |  |  | 
3 | COc1ccc(COc2cccc(NC(=O)Nc3ccc(Br)cc3)c2)cc1 [Compound 8] | 11 ± 1 µM | >9 | 1.6 ± 0.8 µM | >62 | > 100 µM | 1.3 ± 0.4 µM | >77 | 95 ± 9% | 103 ± 2% | 94 ± 12% | 87 ± 23% | 46 ± 18% | > 100 µM | ~60% |  |  |  |  | 
4 | COc1ccc(COc2cccc(NC(=O)Nc3ccc(OC)cc3)c2)cc1 [Compound 11] | 2 ± 1.2 µM | >50 | 12 ± 1 µM | >9 | > 100 µM | > 200 µM |  | 102 ± 6% | 103 ± 2% | 100 ± 7% | 57 ± 15% | 168 ± 12% | > 100 µM |  | ~40% | no inhibitory effect |  |  | 
5 | COc1ccc(COc2cccc(NC(=O)Oc3ccccc3)c2)cc1 [Compound 14] |  | >15 |  | >27 | > 100 µM |  | >5 | 99 ± 6% | 102 ± 1% | 81 ± 8% | 85 ± 15% | 43 ± 12% | > 100 µM | ~60% |  |  | 6.8 ± 0.5 µM | 3.7 ± 0.5 µM | 20 ± 9 µM
